Data as given in patent US20260285853A1, “COMPOUNDS AND METHODS FOR MODULATING SPLICING” (REMIX THERAPEUTICS INC., priority 2023, published 2026).

Experiments:
Format in all cases: cell-based
[1] = test system: SH-SY5Y (human neuroblastoma) cells; assay: Cell viability, Cell Titer Glo 2.0 assay; conditions: read-out: Viability SHSY5Y.3 GI50
Outline: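 SH-SY5Y neuroblastoma cells are exposed to test compounds for 72 hours at 37 °C and 5% CO2, with final DMSO held at 0.1%. Cell viability is then measured with the CellTiter-Glo 2.0 assay.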

MYB mRNA [2] = assay: Splicing RT-qPCR assay (THP), Table 2A; conditions: Table 2A, THP; for AC50: MYB alternative junction (AJ) mRNA, read-out: MYB AJ (AC50, increase in alternative junction mRNA); for IC50: MYB canonical junction (CJ) mRNA, read-out: MYB CJ (IC50, decrease in canonical junction mRNA)
HTT mRNA [3] = assay: Splicing RT-qPCR assay (THP), Table 2A; conditions: Table 2A, THP; for AC50: HTT alternative junction (AJ) mRNA, read-out: HTT AJ (AC50, increase in alternative junction mRNA); for IC50: HTT canonical junction (CJ) mRNA, read-out: HTT CJ (IC50, decrease in canonical junction mRNA)
MYB mRNA [4] = assay: Gene panel canonical junction qPCR assay, decrease in CJ mRNA, Table 3; conditions: decrease in CJ mRNA levels, canonical junction qPCR, gene panel
Outline: (§1)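 A673 cells were plated, left to adhere for 24 h, then dosed; K562 cells were plated in 96- or 384-well format and dosed directly. Both were incubated 24 h at 37 °C with an 11-point 3-fold series (top 10 uM final). Canonical junction mRNA was then read by cDNA synthesis and qPCR.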

HTT mRNA [5] = assay: as above; conditions: decrease in CJ mRNA levels, canonical junction qPCR, gene panel
Outline: as §1

| Compound | GI50 [1] | AC50 (MYB mRNA [2]) | IC50 (MYB mRNA [2]) | AC50 (HTT mRNA [3]) | IC50 (HTT mRNA [3]) | IC50 (MYB mRNA [4]) | IC50 (HTT mRNA [5]) |
| --- | --- | --- | --- | --- | --- | --- | --- |
| COc1cc2nn(C)cc2cc1NC(=O)c1ccc(N2CCC(NC3CC3)CC2)n2cc(C)nc12 [Compound 618, 5-[4-(cyclopropylamino)-1-piperidyl]-N-(6-methoxy-2-methyl-indazol-5-yl)-2-methyl-imidazo[1,2-a]-pyridine-8-carboxamide] | 1000 to 10000 nM | < 100 nM | 100 to 1000 nM | 1000 to 10000 nM | 1000 to 10000 nM | 100 to 1000 nM | 1000 to 10000 nM |
| COc1cc2nn(C)cc2cc1NC(=O)c1ccc(N2CCC(NC3CC3)CC2)c2cc(C)nn12 [Compound 619, 4-[4-(cyclopropylamino)-1-piperidyl]-N-(6-methoxy-2-methyl-indazol-5-y1)-2-methyl-pyrazolo[1,5-a]-pyridine-7-carboxamide] | 1000 to 10000 nM | 100 to 1000 nM | 100 to 1000 nM | 1000 to 10000 nM | 1000 to 10000 nM | 100 to 1000 nM | 1000 to 10000 nM |
| COCc1cc2c(N3CCC(NC4CC4)CC3)ccc(C(=O)Nc3cc(F)c4nc(C)cn4c3)n2n1 [Compound 620, 4-[4-(cyclopropylamino)-1-piperidyl]-N-(8-fluoro-2-methyl-imidazo[1,2-a]pyridin-6-yl)-2-(methoxymethyl)-pyrazolo[1,5-a]pyridine-7-carboxamide] | 100 to 1000 nM | 100 to 1000 nM | < 100 nM | 100 to 1000 nM | 100 to 1000 nM | < 100 nM | 100 to 1000 nM |
| COCc1cc2c(N3CCC(NC4CC4)CC3)ccc(C(=O)Nc3cc4cn(C)nc4cc3OC)n2n1 [Compound 621, 4-[4-(cyclopropylamino)-1-piperidyl]-2-(methoxymethyl)-N-(6-methoxy-2-methyl-indazol-5-yl)-pyrazolo[1,5-a]-pyridine-7-carboxamide] | 100 to 1000 nM | < 100 nM | 100 to 1000 nM | 100 to 1000 nM | 1000 to 10000 nM | 100 to 1000 nM | 1000 to 10000 nM |
| Cc1cn2cc(NC(=O)c3ccc(N4CCC(NC5CC5)CC4)c4cc(CO)nn34)cc(F)c2n1 [Compound 622] | 100 to 1000 nM | 100 to 1000 nM | < 100 nM | 100 to 1000 nM | 100 to 1000 nM | < 100 nM | 100 to 1000 nM |
| Cc1cn2cc(NC(=O)c3ccc(N4CCC(NC5CC5)CC4)c4cc(CF)nn34)cc(F)c2n1 [Compound 623, 4-[4-(cyclopropylamino)-1-piperidyl]-2-(fluoromethyl)-N-(8-fluoro-2-methyl-imidazo[1,2-a]-pyridin-6-y1)pyrazolo[1,5-a]pyridine-7-carboxamide] | 100 to 1000 nM | < 100 nM | < 100 nM | 100 to 1000 nM | 100 to 1000 nM | < 100 nM | 100 to 1000 nM |
| COc1cc2nn(C)cc2cc1NC(=O)c1c(F)cc(N2CCC(NC3CC3)CC2)c2cc(C)nn12 [Compound 624, 4-[4-(cyclopropylamino)-1-piperidyl]-6-fluoro-N-(6-methoxy-2-methyl-indazol-5-yl)-2-methyl-pyrazolo[1,5-a]pyridine-7-carboxamide] | > 10000 nM | > 10000 nM | > 10000 nM | > 10000 nM | > 10000 nM | > 10000 nM | > 10000 nM |
| COc1cc2nn(C)cc2cc1NC(=O)c1ccc(N2CCC(NC3CC3)CC2)c2cc(CF)nn12 [Compound 625, 4-[4-(cyclopropylamino)-1-piperidyl]-2-(fluoromethyl)-N-(6-methoxy-2-methyl-indazol-5-yl)pyrazolo[1,5-a]-pyridine-7-carboxamide] | 100 to 1000 nM | < 100 nM | < 100 nM | 100 to 1000 nM | 100 to 1000 nM | < 100 nM | 100 to 1000 nM |
| COc1cc2nc(C)cn2cc1NC(=O)c1c(F)cc(N2CCC(NC3CC3)CC2)c2cc(C)nn12 [Compound 626, 4-[4-(cyclopropylamino)-1-piperidyl]-6-fluoro-N-(7-methoxy-2-methylimidazo-[1,2-a]pyridin-6-yl)-2-methylpyrazolo-[1,5-a]pyridine-7-carboxamide] | > 10000 nM | > 10000 nM | > 10000 nM | > 10000 nM | > 10000 nM | > 10000 nM | > 10000 nM |
| COc1cc2nn(C)cc2cc1NC(=O)c1c(Cl)cc(N2CCC(NC3CC3)CC2)n2cc(C)nc12 [Compound 627, 7-chloro-5-(4-(cyclopropylamino)piperidin-1-yl)-N-(6-methoxy-2-methyl-2H-indazol-5-yl)-2-methylimidazo[1,2-a]pyridine-8-carboxamide 2,2,2-trifluoroacetate] | > 10000 nM | > 10000 nM | > 10000 nM | > 10000 nM | > 10000 nM | > 10000 nM | > 10000 nM |
| CCNC1CCN(c2ccc(C(=O)Nc3cc4cn(C)nc4cc3OC)c3nc(C)cn23)CC1 [Compound 628, 5-[4-(ethylamino)-1-piperidyl]-N-(6-methoxy-2-methyl-indazol-5-yl)-2-methyl-imidazo[1,2-a]pyridine-8-carboxamide] | 100 to 1000 nM | < 100 nM | < 100 nM | 100 to 1000 nM | 100 to 1000 nM | < 100 nM | 100 to 1000 nM |
| COCCOCc1cc2c(N3CCC(NC4CC4)CC3)ccc(C(=O)Nc3cc(F)c4nc(C)cn4c3)n2n1 [Compound 629, 4-[4-(cyclopropylamino)-1-piperidyl]-N-(8-fluoro-2-methyl-imidazo[1,2-a]-pyridin-6-y1)-2-(2-methoxyethoxy-methyl)-pyrazolo[1,5-a]pyridine-7-carboxamide] | 100 to 1000 nM | < 100 nM | < 100 nM | 1000 to 10000 nM | 100 to 1000 nM | < 100 nM | 100 to 1000 nM |
| COc1c(NC(=O)c2ccc(N3CCC(NC4CC4)CC3)c3cc(C)nn23)cn2cc(C)nc(C)c12 [Compound 630, 4-[4-(cyclopropylamino)-1-piperidyl]-N-(8-methoxy-1,3-dimethyl-pyrrolo[1,2-a]pyrazin-7-yl)-2-methyl-pyrazolo[1,5-a]pyridine-7-carboxamide] | 1000 to 10000 nM | 1000 to 10000 nM | 1000 to 10000 nM | 1000 to 10000 nM | 1000 to 10000 nM | 1000 to 10000 nM | 1000 to 10000 nM |
| COc1c(NC(=O)c2ccc(N3CCC(NC4CC4)CC3)n3cc(C)nc23)cn2cc(C)nc(C)c12 [Compound 631, 5-[4-(cyclopropylamino)-1-piperidyl]-N-(8-methoxy-1,3-dimethyl-pyrrolo[1,2-a]pyrazin-7-yl)-2-methyl-imidazo[1,2-a]pyridine-8-carboxamide] | 1000 to 10000 nM | 1000 to 10000 nM | 1000 to 10000 nM | 1000 to 10000 nM | 1000 to 10000 nM | 1000 to 10000 nM | 1000 to 10000 nM |
| COc1cc2c(N3CCC(NC4CC4)CC3)ccc(C(=O)Nc3cc4cn(C)nc4cc3OC)n2n1 [Compound 632, 4-[4-(cyclopropylamino)-1-piperidyl]-2-methoxy-N-(6-methoxy-2-methyl-indazol-5-yl) pyrazolo[1,5-a]pyridine-7-carboxamide] | 1000 to 10000 nM | < 100 nM | < 100 nM | 100 to 1000 nM | 100 to 1000 nM | < 100 nM | 100 to 1000 nM |
| COc1cc2c(N3CCC(NC4CC4)CC3)ccc(C(=O)Nc3cn4cc(C)nc(C)c4n3)n2n1 [Compound 633, 4-[4-(cyclopropyl-amino)-1-piperidyl]-N-(6,8-dimethyl-imidazo[1,2-a]pyrazin-2-yl)-2-methoxypyrazolo [1,5-a]-pyridine-7-carboxamide] | > 10000 nM | 100 to 1000 nM | 100 to 1000 nM | > 10000 nM | > 10000 nM | 100 to 1000 nM | > 10000 nM |
| COc1cc2c(N3CCC(NC4CC4)CC3)ccc(C(=O)Nc3cn4cc(C)nc4c(OC)n3)n2n1 [Compound 634, 4-[4-(cyclopropyl-amino)-1-piperidyl]-2-methoxy-N-(8-methoxy-2-methylimidazo[1,2-a]pyrazin-6-yl)-pyrazolo[1,5-a]pyridine-7-carboxamide] | 100 to 1000 nM | < 100 nM | < 100 nM | < 100 nM | < 100 nM | < 100 nM | < 100 nM |
| Cc1cn2cc(NC(=O)c3ccc(N4CCC(NC5CC5)CC4)n4nc(C)nc34)cc(F)c2n1 [Compound 640, 5-[4-(cyclopropylamino)-1-piperidyl]-N-(8-fluoro-2-methyl-imidazo[1,2-a]pyridin-6-yl)-2-methyl-[1,2,4]-triazolo[1,5-a]-pyridine-8-carboxamide] | 100 to 1000 nM | < 100 nM | < 100 nM | 100 to 1000 nM | 100 to 1000 nM | < 100 nM | 100 to 1000 nM |
| Cc1cn2cc(NC(=O)c3ccc(N4CCC(NC5CC5)CC4)n4nc(C)nc34)nc2c(C)n1 [Compound 641, 5-[4-(cyclopropylamino)-1-piperidyl]-N-(6,8-dimethylimidazo-[1,2-a]pyrazin-2-yl)-2-methyl-[1,2,4]-triazolo[1,5-a]pyridine-8-carboxamide] | 100 to 1000 nM | 100 to 1000 nM | 100 to 1000 nM | 100 to 1000 nM | 100 to 1000 nM | 100 to 1000 nM | 100 to 1000 nM |
